According to US9403813B2, “Azetidine amide derivatives as orexin receptor antagonists” (ACTELION PHARMACEUTICALS LTD, priority 2013, dated 2016):

Experiments:
rodents [1] = conditions: cited from earlier work
rodents [2] = conditions: cited from earlier work; remark: listed apart in the source
[3] = system: amyloid precursor protein transgenic mice; conditions: after acute sleep restriction, APP transgenic mice; cited from earlier work
humans = conditions: primary insomnia; cited from earlier work
rat [4] = conditions: cited from earlier work
rats [5] = conditions: rats treated with the compound; cited from earlier work
rat [6] = conditions: cited from earlier work; remark: listed apart in the source
rat [7] = conditions: cited from earlier work; remark: listed apart in the source
rats [8] = conditions: fasted hungry rats exposed to food odors; cited from earlier work
rats [9] = conditions: cited from earlier work
mouse = conditions: administered chronically; cited from earlier work
human orexin-1 receptor = human orexin-1 receptor (Homo sapiens (Human), UniProt O43613); experiment: Intracellular calcium measurements (FLIPR), antagonism of orexin-A response; type: cell-based; conditions: CHO cells expressing human orexin-1 receptor, 3 nM orexin-A, geometric mean if determined several times, read-out: IC50 OX1
How it was run: (§1)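 CHO cells expressing human OX1 or OX2 receptor, loaded with fluo-4 AM plus probenecid, preincubated with antagonist 120 min before 3 nM orexin-A challenge. FLIPR calcium peak heights compared with agonist-plus-vehicle response. IC50 possibly normalized to on-plate reference; geometric mean of repeat determinations.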

human orexin-2 receptor = human orexin-2 receptor (Homo sapiens (Human), UniProt O43614); experiment: as above; type: cell-based; conditions: CHO cells expressing human orexin-2 receptor, 3 nM orexin-A, geometric mean if determined several times, read-out: IC50 OX2
How it was run: as §1

Chain of human orexin-1 receptor (O43613 whole entry): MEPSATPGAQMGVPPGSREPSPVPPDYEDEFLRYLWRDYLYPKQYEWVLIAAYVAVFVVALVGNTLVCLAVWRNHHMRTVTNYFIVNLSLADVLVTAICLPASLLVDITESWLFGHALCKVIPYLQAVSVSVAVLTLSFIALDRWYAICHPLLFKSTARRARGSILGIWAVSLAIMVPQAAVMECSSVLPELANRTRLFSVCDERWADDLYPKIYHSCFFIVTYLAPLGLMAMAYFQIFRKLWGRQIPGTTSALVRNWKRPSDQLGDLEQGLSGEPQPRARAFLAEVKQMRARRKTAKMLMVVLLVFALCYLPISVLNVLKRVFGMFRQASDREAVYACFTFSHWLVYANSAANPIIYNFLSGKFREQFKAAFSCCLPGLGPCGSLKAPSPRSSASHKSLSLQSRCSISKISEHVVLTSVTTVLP
Chain of human orexin-2 receptor (O43614 whole entry): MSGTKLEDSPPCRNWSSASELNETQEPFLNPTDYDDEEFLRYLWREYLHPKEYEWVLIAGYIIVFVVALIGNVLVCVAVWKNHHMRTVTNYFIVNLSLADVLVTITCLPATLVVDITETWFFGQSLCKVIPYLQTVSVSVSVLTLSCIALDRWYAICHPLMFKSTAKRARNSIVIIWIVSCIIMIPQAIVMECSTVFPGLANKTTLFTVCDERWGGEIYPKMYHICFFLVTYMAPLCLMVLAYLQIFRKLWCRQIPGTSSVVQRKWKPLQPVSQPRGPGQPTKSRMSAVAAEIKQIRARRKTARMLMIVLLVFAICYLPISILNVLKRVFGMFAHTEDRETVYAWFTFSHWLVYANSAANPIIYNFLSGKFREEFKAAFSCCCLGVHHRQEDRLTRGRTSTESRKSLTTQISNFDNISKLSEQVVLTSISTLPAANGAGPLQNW

IC50 (human orexin-1 receptor)	IC50 (human orexin-2 receptor)	SMILES	also measured
		Cn1c(SCC(=O)N2CCC[C@H]2C(=O)Nc2ccccc2-c2ccccc2)nc2ccccc21 [N-Biphenyl-2-yl-1-{[(1-methyl-1H-benzimidazol-2-yl)sulfanyl]acetyl}-L-prolinamide]	behavioral and molecular changes induced by repeated amphetamine (rodents [1]): reduced behavioral (locomotor sensitization) and molecular (transcriptional responses) changes; nicotine-reinstatement for a conditioned reinforcer (rodents [2]): inhibited nicotine-reinstatement for a conditioned reinforcer
		CNC(=O)[C@@H](c1ccccc1)N1CCc2cc(OC)c(OC)cc2[C@@H]1CCc1ccc(C(F)(F)F)cc1 [(2R)-2-{(1S)-6,7-dimethoxy-1-[2-(4-trifluoromethyl-phenyl)-ethyl]-3,4-dihydro-1H-isoquinolin-2-yl}-N-methyl-2-phenyl-acetamide]	brain levels of amyloid-beta and plaque deposition [3]: decreased brain levels of amyloid-beta (Aβ) as well as Aβ plaque deposition; clinical efficacy (humans): showed clinical efficacy; activity in fear-potentiated startle paradigm (rat [4]): active; learning and memory (rats [5]): intact declarative and non-declarative learning and memory; alertness (active wake and locomotion) (rat [6]): decrease alertness; time spent in REM and NREM sleep (rat [6]): dose-dependently increase the time spent in both REM and NREM sleep; activity in nicotine self-administration (rat [7]): displayed pharmacological activity; natural activation induced by orexin A (rats [8]): attenuate the natural activation induced by orexin A; cardiovascular responses to conditioned fear and novelty exposure (rats [9]): attenuated cardiovascular responses; antidepressant-like activity (mouse): induce antidepressant-like activity
34 nM	3 nM	Cc1cc(C(=O)N2CC[C@H]2c2noc(-c3ccccc3OC(F)(F)F)n2)c(-n2nccn2)cc1C [Example 85, (4,5-Dimethyl-2-[1,2,3]triazol-2-yl-phenyl)-{(S)-2-[5-(2-trifluoromethoxy-phenyl)-[1,2,4]oxadiazol-3-yl]-azetidin-1-yl}-methanone]	
338 nM	47 nM	O=C(c1cc(Cl)ccc1-n1nccn1)N1CC[C@H]1c1nc(-c2ccccc2OC(F)(F)F)no1 [Example 81, (5-Chloro-2-[1,2,3]triazol-2-yl-phenyl)-{(S)-2-[3-(2-trifluoromethoxy-phenyl)-[1,2,4]oxadiazol-5-yl]-azetidin-1-yl}-methanone]	
83 nM	1 nM	CCOc1ncccc1-c1nc([C@@H]2CCN2C(=O)c2cc(OC)c(Cl)cc2-n2nccn2)no1 [Example 98, (4-Chloro-5-methoxy-2-[1,2,3]triazol-2-yl-phenyl)-{(S)-2-[5-(2-ethoxy-pyridin-3-yl)-[1,2,4]oxadiazol-3-yl]-azetidin-1-yl}-methanone]	
745 nM	416 nM	Cc1nc(C(=O)N2CC[C@H]2c2nc(-c3ccccc3OC(F)(F)F)no2)c(-c2ccccc2C)s1 [Example 45, (2-Methyl-5-o-tolyl-thiazol-4-yl)-{(S)-2-[3-(2-trifluoromethoxy-phenyl)-[1,2,4]oxadiazol-5-yl]-azetidin-1-yl}-methanone]	
43 nM	7 nM	Cc1c(Cl)cccc1-c1noc([C@@H]2CCN2C(=O)c2nc(N(C)C)sc2-c2ccccc2)n1 [Example 59, {(S)-2-[3-(3-Chloro-2-methyl-phenyl)-[1,2,4]oxadiazol-5-yl]-azetidin-1-yl}-(2-dimethylamino-5-phenyl-thiazol-4-yl)-methanone]	
364 nM	17 nM	O=C(c1ccc(C(F)(F)F)cc1-n1nccn1)N1CC[C@H]1c1nnc(-c2ccccc2OC(F)(F)F)[nH]1 [Example 133, (2-[1,2,3]Triazol-2-yl-4-trifluoromethyl-phenyl)-{(S)-2-[5-(2-trifluoromethoxy-phenyl)-4H-[1,2,4]triazol-3-yl]-azetidin-1-yl}-methanone]	
81 nM	4 nM	COc1c(Cl)cccc1-c1nc([C@@H]2CCN2C(=O)c2ccc(C)cc2-n2nccn2)no1 [Example 118, {(S)-2-[5-(3-Chloro-2-methoxy-phenyl)-[1,2,4]oxadiazol-3-yl]-azetidin-1-yl}-(4-methyl-2-[1,2,3]triazol-2-yl-phenyl)-methanone]	
317 nM	13 nM	Cc1c(Cl)cccc1-c1nc([C@@H]2CCN2C(=O)c2ccc(Cl)cc2-n2nccn2)no1 [Example 107, {(S)-2-[5-(3-Chloro-2-methyl-phenyl)-[1,2,4]oxadiazol-3-yl]-azetidin-1-yl}-(4-chloro-2-[1,2,3]triazol-2-yl-phenyl)-methanone]	
220 nM	6 nM	COc1cc(C(=O)N2CC[C@H]2c2nc(-c3ccccc3OC(F)(F)F)no2)c(-n2nccn2)cc1C [Example 27, (5-Methoxy-4-methyl-2-[1,2,3]triazol-2-yl-phenyl)-{(S)-2-[3-(2-trifluoromethoxy-phenyl)-[1,2,4]oxadiazol-5-yl]-azetidin-1-yl}-methanone]	
1600 nM	390 nM	Cc1c(Cl)cccc1-c1noc([C@@H]2CCN2C(=O)c2cc(C(F)(F)F)ccc2-n2nccn2)n1 [Example 66, {(S)-2-[3-(3-Chloro-2-methyl-phenyl)-[1,2,4]oxadiazol-5-yl]-azetidin-1-yl}-(2-[1,2,3]triazol-2-yl-5-trifluoromethyl-phenyl)-methanone]	
671 nM	4 nM	COc1cc(C(=O)N2CC[C@H]2c2nc(-c3cccc(F)c3C)no2)c(-n2nccn2)cc1C [Example 29, {(S)-2-[3-(3-Fluoro-2-methyl-phenyl)-[1,2,4]oxadiazol-5-yl]-azetidin-1-yl}-(5-methoxy-4-methyl-2-[1,2,3]triazol-2-yl-phenyl)-methanone]	

SMILES	IC50 (human orexin-1 receptor)	IC50 (human orexin-2 receptor)	also measured
Cc1cccc(-n2nccn2)c1C(=O)N1CC[C@H]1c1nc(-c2cccc(Cl)c2C)no1 [Example 64, {(S)-2-[3-(3-Chloro-2-methyl-phenyl)-[1,2,4]oxadiazol-5-yl]-azetidin-1-yl}-(2-methyl-6-[1,2,3]triazol-2-yl-phenyl)-methanone]	812 nM	69 nM	
